In US8895504B2, “Amylin derivatives” (priority 2008, dated 2014):
*1 amine or outer side, *2 acyl side, *3 side chain or, on linkers, in order; H or OH if unused. Where a SMILES comes first, the peptide text is derived from it. Bridges are numbered along the chain shown (N, C = ends). The star is where a group is joined. C20 diacid = O=C(O)CCCCCCCCCCCCCCCCCCC(=O)*; γGlu = O=C(O)[C@H](CCC(=O)[*:2])N[*:1]

How the values were obtained:
[1] = Assay (V) PK - determination of T½ in mini-pig; type: in vivo; settings: minipig, sc; terminal plasma half-life, subcutaneous, approx 2 nmol/kg, male Göttingen mini-pigs
How it was run: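 Male Göttingen mini-pigs (5–12 months, 7–35 kg) got a single s.c. neck injection of approx 2 nmol/kg; plasma sampled via central venous catheter predose to 240 h (some to 288 h). Amylin measured by sandwich ELISA; T½ = ln 2/λz from non-compartmental analysis of individual profiles.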

[2] = molecular target: T1, Amylin 3(a) receptor (human calcitonin receptor (CTa) and RAMP-3) (Homo sapiens, UniProt O60896+P30988); assay: Luciferase assay (III), BHK Amylin 3(a)//CRE-luc cells; type: cell-based; settings: BHK cells with Amylin 3(a) receptor and CRE luciferase reporter, 4 hours incubation; read-out: Potency Luciferase
T1 construct: expressed in transfected cells; host or cells: BHK570 cells, stably transfected with a CRE-luciferase reporter
How it was run: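 Read-out is CRE-driven luciferase luminescence, taken 30 min after LucLite addition at room temperature. Compounds were incubated 4 h at 37° C in assay medium (10% FBS, 10 mM Hepes, pH 7,4). The cell line is BHK570 co-transfected with human calcitonin receptor CTa and RAMP-3, seeded overnight before use.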

T1 sequence (O60896 24-148): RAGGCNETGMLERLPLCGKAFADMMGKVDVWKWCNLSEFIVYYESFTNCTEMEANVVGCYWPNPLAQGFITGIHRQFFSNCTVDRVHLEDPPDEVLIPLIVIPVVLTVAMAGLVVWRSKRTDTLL
T1 sequence (P30988 25-474): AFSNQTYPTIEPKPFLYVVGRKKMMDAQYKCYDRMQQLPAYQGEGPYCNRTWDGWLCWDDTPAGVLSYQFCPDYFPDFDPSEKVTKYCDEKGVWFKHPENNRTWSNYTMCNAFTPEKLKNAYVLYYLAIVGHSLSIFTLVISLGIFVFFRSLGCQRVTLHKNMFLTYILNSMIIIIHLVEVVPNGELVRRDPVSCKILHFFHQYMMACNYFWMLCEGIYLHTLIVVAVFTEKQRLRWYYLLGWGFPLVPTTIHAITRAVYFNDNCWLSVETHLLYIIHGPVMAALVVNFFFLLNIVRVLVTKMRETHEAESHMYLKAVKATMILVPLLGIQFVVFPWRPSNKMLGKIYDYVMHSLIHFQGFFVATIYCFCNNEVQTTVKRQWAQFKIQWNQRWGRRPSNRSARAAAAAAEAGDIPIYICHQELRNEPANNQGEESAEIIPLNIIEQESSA

half-life [1]: 2.5 days
EC50 [2]: 0.06 nM
Structure (SMILES): CC[C@H](C)[C@H](NC(=O)[C@@H]1CCCN1C(=O)CNC(=O)[C@H](Cc1ccccc1)NC(=O)[C@H](CC(N)=O)NC(=O)[C@H](CC(N)=O)NC(=O)[C@H](CO)NC(=O)[C@H](CO)NC(=O)[C@H](Cc1c[nH]cn1)NC(=O)[C@H](Cc1c[nH]cn1)NC(=O)[C@H](CC(C)C)NC(=O)[C@H](Cc1ccccc1)NC(=O)[C@H](CC(N)=O)NC(=O)[C@H](C)NC(=O)[C@H](CC(C)C)NC(=O)[C@H](CCCNC(=N)N)NC(=O)[C@H](CCC(N)=O)NC(=O)[C@@H](NC(=O)[C@H](C)NC(=O)[C@@H]1CSSC[C@H](NC(=O)[C@H](Cc2c[nH]cn2)NC(=O)[C@H](Cc2c[nH]cn2)NC(=O)[C@H](Cc2c[nH]cn2)NC(=O)CC[C@H](NC(=O)CCCCCCCCCCCCCCCCCCC(=O)O)C(=O)O)C(=O)N[C@@H](CC(N)=O)C(=O)N[C@@H]([C@@H](C)O)C(=O)N[C@@H](C)C(=O)N[C@@H]([C@@H](C)O)C(=O)N1)[C@@H](C)O)C(=O)N[C@@H](CC(C)C)C(=O)N1CCC[C@H]1C(=O)N1CCC[C@H]1C(=O)N[C@H](C(=O)N[C@@H](CC(N)=O)C(=O)N[C@H](C(=O)NCC(=O)N[C@@H](CO)C(=O)N[C@@H](CC(N)=O)C(=O)N[C@H](C(=O)N[C@@H](Cc1ccc(O)cc1)C(N)=O)[C@@H](C)O)C(C)C)[C@@H](C)O [Example 39, N-alpha-[(S)-4-Carboxy-4-(19-carboxynonadecanoylamino)butyryl]-His-His-[His1,His17]-pramlintide] ({C20 diacid-γGlu}-HHHCNTATCATQRLANFLHHSSNNFGPILPPTNVGSNTY-NH2; disulfide 4-9)
